Laboratory results reported in patent US6376670B1, “Quinoline-indole antimicrobial agents, uses and compositions related thereto” (Sepracor Inc., priority 1997, dated 2002).
Like-named read-outs stand apart in the source and are kept apart here.

Tests used:
[1] = test system: methicillin-resistant Staphylococcus aureus (MRSA); assay: Determination of MIC values (BHI broth, 96 well microtiter plate); type: cell-based; conditions: for MIC: Staphylococcus aureus, MRSA, read-out: MIC MRSA
In short: (§1)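 Broth microdilution in BHI broth used final compound concentrations of 25 to 0.39 μg/mL, diluted from DMSO solutions. Inoculum was 10^5–10^6 cells/mL from cultures grown to a 0.5 McFarland standard. Plates were incubated overnight (~16 h) at 37 °C in about 7–10% CO2; MIC was the lowest concentration with no visible growth.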

[2] = test system: S. aureus (ATCC 25923); assay: MIC against S. aureus strain; type: cell-based; conditions: Staphylococcus aureus, ATCC25923
Experimental: (§2) Stock solutions of compounds are prepared with a concentration of 10 mg/mL. These solutions are then diluted 1:4 to give a concentration of 2.5 mg/mL. The compounds are then serially diluted 1:2 for 6 iterations. The concentrations made for each compound are 2.5, 1.25, 0.625, 0.3125, 0.156, 0.078, and 0.039 mg/mL. A control sample (no compound) is run along with each compound tested. All dilutions are made in DMSO.
(§3) All wells of a 96 well microtiter plate are filled with 100 μL of BHI (Brain-Heart Infusion) broth. Columns on the plate are labeled 1-12, and rows are labeled A-H. Each column of wells is used to test one series of diluted compounds. Into each well of 100 μL of BHI broth, 1 μL of diluted compound is placed for a 1:100 dilution. This makes the final concentration of each drug series 25, 12.5, 6.25, 3.125, 1.56, 0.78, 0.39, and 0 μg/mL.
(§4) Test Organism: A sterile 15 mL screw cap tube is filled wth 3 mL of BHI broth. Next, 2-3 colonies of test organism are inoculated into the tube. The tube is then incubated at 37° C. in a CO2 (approx. 7%) atmosphere jar. The organisms are allowed to grow to the density of a 0.5 McFarland standard (10^8 cells/mL). The organism is then inoculated into each well of the microtiter plate containing the diluted compounds to be tested for MIC. The inoculum is 1 μL in volume and represents 10^5 to 10^6 cells/mL.
(§5) After inoculation the plates are covered and incubated at 37° C. and approx. 7-10% CO2 atmosphere overnight (about 16 hours). The plates are then observed for growth, the well with the lowest concentration of drug and no observable growth represents the well determining the MIC.

[3] = test system: S. aureus (ATCC 29213); assay: MIC against S. aureus strain; type: cell-based; conditions: Staphylococcus aureus, ATCC29213
Experimental: as §2, §3, §4, §5

[4] = test system: S. aureus (ATCC 33591); assay: MIC against S. aureus strain; type: cell-based; conditions: Staphylococcus aureus, ATCC33591
Experimental: as §2, §3, §4, §5

[5] = test system: S. aureus (ATCC 33592); assay: MIC against S. aureus strain; type: cell-based; conditions: Staphylococcus aureus, ATCC33592
Experimental: as §2, §3, §4, §5

[6] = test system: VISA-5827; assay: MIC against VISA strain; type: cell-based; conditions: Staphylococcus aureus
Experimental: as §2, §3, §4, §5

[7] = test system: VISA-5836; assay: MIC against VISA strain; type: cell-based; conditions: Staphylococcus aureus
Experimental: as §2, §3, §4, §5

[8] = test system: Streptococcus pneumoniae; assay: Determination of MIC values (BHI broth, 96 well microtiter plate); type: cell-based; conditions: BHI broth; for MIC: Streptococcus pneumoniae, read-out: MIC S. pneu
In short: as §1

[9] = test system: vancomycin-resistant Enterococcus spp. (VRE); assay: as above; type: cell-based; conditions: BHI broth; for MIC: Enterococcus, VRE, read-out: MIC VREF
In short: as §1

[10] = Acute in vivo toxicity in mice, intraperitoneal injection; conditions: in 10% w/v hydroxypropyl-β-cyclodextrin in 0.9% w/v saline, 5 mice
Experimental: Solutions of compounds in 10% w/v hydroxypropyl-β-cyclodextrin in 0.9% w/v saline were prepared. Doses of 40 mg/kg or 120 mg/kg of each compound were administered to mice (5 mice/compound/dose) via intraperitoneal injections. The mice […] for seven days.

[11] = test system: ciprofloxacin-resistant Staphylococcus aureus (CRSA); assay: Determination of MIC values (BHI broth, 96 well microtiter plate); type: cell-based; conditions: MRSA, cells marked [CRSA], overnight 37° C., read-out: MIC [CRSA] (printed in MRSA column)
In short: as §1

[12] = 16 h, BHI broth, 37° C., about 16 hours

| Structure (SMILES) | MIC [1] [µg/mL] | MIC [2] [µg/mL] | MIC [3] [µg/mL] | MIC [4] [µg/mL] | MIC [5] [µg/mL] | MIC [6] [µg/mL] | MIC [7] [µg/mL] | other results |
| --- | --- | --- | --- | --- | --- | --- | --- | --- |
| CN(CC[N+](C)(C)C)C(=O)c1cc(-c2c[nH]c3ccc(Br)cc23)nc2cc(Cl)ccc12 [compound 10] | < 7 | < 7 | < 7 | < 7 | < 7 | < 7 | < 7 |  |
| NCCNC(=O)c1cc(-c2c[nH]c3ccc(Br)cc23)nc2cc(Cl)c(C#CCN3CCCCC3)cc12 [compound 4] |  | < 7 | < 7 | < 7 | < 7 |  |  |  |
| COc1ccc(NC(=O)c2cc(-c3c[nH]c4ccc(Br)cc34)nc3ccc(C#CCN4CCCCC4)cc23)cc1 [compound 3] | < 7 |  |  |  |  | < 7 | < 7 |  |
| COc1ccc2nc(-c3c[nH]c4ccc(Cl)cc34)ccc2c1 [compound 5] |  | < 7 | < 7 | < 7 | < 7 |  |  |  |
| NCc1cc(-c2c[nH]c3ccc(Br)cc23)nc2cc(Cl)ccc12 [compound 7] |  | < 7 | < 7 | < 7 | < 7 |  |  |  |
| OCc1cc(-c2c[nH]c3ccc(Br)cc23)nc2cc(F)ccc12 [compound 6] |  | < 7 | < 7 | < 7 | < 7 |  |  |  |
| COc1ccc2nc(-c3c[nH]c4ccc(Cl)cc34)ccc2c1 [compound 6] | < 7 |  |  |  |  | < 7 | < 7 |  |
| CC(C)CNC(=O)c1cc(-c2c[nH]c3ccc(Br)cc23)nc2ccc(C#CCN3CCCCC3)cc12 [compound 9] |  | < 25 | < 7 | < 7 | > 25 |  |  |  |
| NCc1ccc(CNC(=O)c2cc(-c3c[nH]c4ccc(Br)cc34)nc3ccccc23)cc1 [compound 1] | < 7 |  |  |  |  | < 7 | < 7 |  |
| COC(=O)c1cc(-c2c[nH]c3ccc(Br)cc23)nc2cc(F)ccc12 [compound 4] | < 7 |  |  |  |  | < 7 | < 7 |  |
| NCc1ccc(CNC(=O)c2cc(-c3c[nH]c4ccc(Br)cc34)nc3ccc(C#CCN4CCCCC4)cc23)cc1 [compound 1] |  | < 7 | < 7 | < 7 | < 7 |  |  |  |
| NCc1ccc(CNC(=O)c2cc(-c3c[nH]c4ccc(Br)cc34)nc3ccc(C#CCN4CCCCC4)cc23)cc1 [compound 2] | < 7 |  |  |  |  | < 7 | < 7 |  |
| Brc1ccc2[nH]cc(-c3nc4ccc(C#CCN5CCCCC5)cc4c4c3CCO4)c2c1 [compound 9] | < 7 |  |  |  |  | < 7 | < 7 |  |
| Brc1ccc2[nH]cc(-c3nc4ccc(C#CCN5CCCCC5)cc4c4c3CCO4)c2c1 [compound 8] |  | < 7 | < 7 | < 7 | < 7 |  |  |  |
| COc1ccc(NC(=O)c2cc(-c3c[nH]c4ccc(Br)cc34)nc3ccc(C#CCN4CCCCC4)cc23)cc1 [compound 2] |  | < 7 | < 7 | < 7 | < 7 |  |  |  |
| NCc1cc(-c2c[nH]c3ccc(Br)cc23)nc2cc(Cl)ccc12 [compound 8] | < 7 |  |  |  |  | < 7 | < 7 |  |
| NCCNC(=O)c1cc(-c2c[nH]c3ccc(Br)cc23)nc2cc(Cl)ccc12 [Example 316] |  |  |  |  |  |  |  | MIC ([8]; S. pneu, overnight 37° C.): < 7 µg/mL; MIC ([1]; BHI broth, overnight 37° C.): < 7 µg/mL; MIC ([9]; VREF, overnight 37° C.): < 7 µg/mL; Mice Surviving on Day 7 ([10]; 40 mg/kg intraperitoneal): 80%; Mice Surviving on Day 7 ([10]; 120 mg/kg intraperitoneal): 0% |
| NCCNC(=O)c1cc(-c2c[nH]c3ccc(Br)cc23)nc2cc(Cl)c(C#CCN3CCCCC3)cc12 [compound 5] | < 7 |  |  |  |  | < 7 | < 7 |  |
| Fc1ccc2c(-c3cc(Cl)c4ccc(Cl)cc4n3)c[nH]c2c1 [Example 461] |  |  |  |  |  |  |  | MIC ([8]; 37° C., about 16 hours): < 7 µg/mL; MIC [1, 12]: < 7 µg/mL; MIC ([9]; 16 h, 37° C., about 16 hours): < 7 µg/mL; Mice Surviving on Day 7 ([10]; 40 mg/kg intraperitoneal): 100%; Mice Surviving on Day 7 ([10]; 120 mg/kg intraperitoneal): 100% |
| NCCNC(=O)c1cc(-c2c[nH]c3ccc(Br)cc23)nc2ccc(C#CCN3CCCCC3)cc12 [Example 418] |  |  |  |  |  |  |  | MIC ([8]; 37° C., about 16 hours): < 7 µg/mL; MIC [1, 12]: < 7 µg/mL; MIC ([9]; 16 h, 37° C., about 16 hours): < 7 µg/mL; Mice Surviving on Day 7 ([10]; 40 mg/kg intraperitoneal): 100%; Mice Surviving on Day 7 ([10]; 120 mg/kg intraperitoneal): 0% |
| Cc1ccc2[nH]cc(-c3cc(Cl)c4ccc(Cl)cc4n3)c2c1 [Example 474] |  |  |  |  |  |  |  | MIC ([8]; 37° C., about 16 hours): < 7 µg/mL; MIC [1, 12]: < 7 µg/mL; MIC ([9]; 16 h, 37° C., about 16 hours): < 25 µg/mL; Mice Surviving on Day 7 ([10]; 40 mg/kg intraperitoneal): 100%; Mice Surviving on Day 7 ([10]; 120 mg/kg intraperitoneal): 100% |
| NCc1ccc(CNC(=O)c2cc(-c3c[nH]c4ccc(Br)cc34)nc3ccccc23)cc1 [Example 284] |  |  |  |  |  |  |  | MIC [11]: < 7 µg/mL |
| OCc1cc(-c2c[nH]c3ccc(Br)cc23)nc2cc(F)ccc12 [compound 7] | < 7 |  |  |  |  | < 7 | < 7 |  |
| Cn1cc(-c2cc(C(=O)NCCN)c3ccc(Cl)cc3n2)c2cc(Br)ccc21 [Example 420] |  |  |  |  |  |  |  | MIC ([8]; 37° C., about 16 hours): < 7 µg/mL; MIC [1, 12]: < 7 µg/mL; MIC ([9]; 16 h, 37° C., about 16 hours): < 7 µg/mL; Mice Surviving on Day 7 ([10]; 40 mg/kg intraperitoneal): 100%; Mice Surviving on Day 7 ([10]; 120 mg/kg intraperitoneal): 100% |
| NCC(O)CNC(=O)c1cc(-c2c[nH]c3ccc(Br)cc23)nc2cc(Cl)cc(Cl)c12 (centres unmarked) [Entry 11] |  | < 7 | < 7 | < 7 | < 7 |  |  |  |
| OCc1cc(-c2c[nH]c3ccc(Br)cc23)nc2cc(F)ccc12 [Example 447] |  |  |  |  |  |  |  | MIC S. pneu ([8]; 37° C., about 16 hours): < 7 µg/mL; MIC MRSA ([1]; BHI broth, 37° C., about 16 hours): < 7 µg/mL; MIC VREF ([9]; 37° C., about 16 hours): <7 µg/mL; Mice Surviving on Day 7 ([10]; 40 mg/kg intraperitoneal): 100%; Mice Surviving on Day 7 ([10]; 120 mg/kg intraperitoneal): 80% |
| NCCNC(=O)c1cc(-c2c[nH]c3ccc(Br)cc23)nc2cc(Cl)c(C#CCN3CCCCC3)cc12 [Example 380] |  |  |  |  |  |  |  | MIC ([8]; S. pneu, overnight 37° C.): < 7 µg/mL; MIC ([1]; BHI broth, overnight 37° C.): < 7 µg/mL; MIC ([9]; VREF, overnight 37° C.): < 7 µg/mL; Mice Surviving on Day 7 ([10]; 40 mg/kg intraperitoneal): 100%; Mice Surviving on Day 7 ([10]; 120 mg/kg intraperitoneal): 0% |
| COC(=O)c1cc(-c2c[nH]c3ccc(Br)cc23)nc2cc(F)ccc12 [compound 3] |  | < 7 | < 7 | < 7 | < 7 |  |  |  |
